The source of these data is ChEMBL document CHEMBL1201862, “PubChem BioAssay data set” (2004).

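Values below derive from 48-hour exposures of cells grown in 96-well plates, with endpoints linearly interpolated between the two concentrations bracketing the appropriate inhibition level. GI50 = concentration required for 50% inhibition of growth.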 Activity calls are given as the source filed them. No stated cut-off is given here; in the data, active = GI50 up to about 1.1 µM and inactive = higher.

The test system of the assay is BT-549. Kind of assay: DTP human tumour cell line panel, 48 h.
For the molecule `O=C1C=CC(=O)c2c1ccc1c3ccccc3n(Cc3cccc([N+](=O)[O-])c3)c21`, the GI50 (commonly the concentration at which growth is held to half of that of the control) is 40.1 µM (inactive).

Take `Cn1c(CC(O)c2nc3ccccc3n2C)nc2ccccc21` (stereo not given): the GI50 is > 34.4 µM (inactive).

On to `CN(C)CC(O)CNC(=O)Nc1ccccc1` (stereo not given), for which the GI50 was > 100 µM (inactive).

Turning to `CC12CC(c3ccccc3O1)C(C(=O)Nc1ccc(Cl)cc1Cl)C(=O)N2` (stereo not given), the GI50 was 89.3 µM (inactive).

On to `COc1cc(/C=C2\N=C(c3ccccc3)N(c3nc4ccc(Sc5ccccc5)cc4[nH]3)C2=O)cc(OC)c1OC`, for which the GI50 was 20.8 µM (inactive).

In the case of `COc1cc(/C=C2\N=C(c3ccccc3)N(c3cc4cc(Sc5ccccc5)ccc4[nH]3)C2=O)cc(OC)c1OC`, the GI50 is 9.42 µM (inactive).

On to `Oc1ccc(-c2c3ccccc3c(-c3ccc(OCCBr)cc3)c3ccccc23)cc1`, for which the GI50 was 30.1 µM (inactive).

Turning to `Cc1ccc(-c2cn3c(nc4ccccc43)c(-c3ccccc3)n2)cc1`, the GI50 was 32.5 µM (inactive).

As for `CN(C)C=O.O=C(Nc1nnn[nH]1)c1nc(O)cc(-c2ccccc2)n1`, the GI50 is > 100 µM (inactive).

On to `COC(=O)C(/C(=N/NC(=O)c1ccncc1)C(=O)Nc1ccccc1OC)c1nc2ccc(Cl)cc2nc1O` (stereo not given), for which the GI50 is > 100 µM (inactive).

Turning to `CCCCC1C=Cn2c(=O)oc3c(OC(C)C)c(C)c(O)c1c32` (stereo not given), the GI50 was 2.17 µM (inactive).

For `COc1ccc(OC)c(NCC(=O)Nn2cnc3ccc(S(=O)(=O)Nc4cc(OC)ccc4OC)cc3c2=O)c1`, the GI50 was > 100 µM (inactive).

As for `CCc1cc(O)c(Cl)c(C)c1Cl`, the GI50 was 17.5 µM (inactive).

Consider `O=C1/C(=C\c2cccc(Oc3ccccc3)c2)SC(c2ccccc2)N1c1cccc(Cl)c1` (stereo not given), for which the GI50 is > 100 µM (inactive).

On to `CC(CNC(=O)c1ccccc1)(CNC(=O)c1ccccc1)[N+](=O)[O-]`, for which the GI50 is > 100 µM (inactive).

In the case of `COC(=O)[C@H](CNC(=O)/C=C/c1ccc(OC(C)=O)c(OC(C)=O)c1)NC(=O)/C=C/c1ccc(OC(C)=O)c(OC(C)=O)c1`, the GI50 is > 100 µM (inactive).

Consider `C[n+]1c2ccccc2c2/c(=C\C#N)c3ccccc3n21`, for which the GI50 was 3.42 µM (inactive).

As to `CC1(O)CC(C(F)(F)F)(C(F)(F)F)OC1=O` (stereo not given), the GI50 was > 10 µM (inactive).

Regarding `CC(=O)c1cc(S(=O)(=O)c2ccc(O)c(C(C)=O)c2)ccc1O`, the GI50 is 23.5 µM (inactive).

`O=C1C(c2c(O)[nH]c3ccc(Br)cc23)=Nc2ccc(Br)cc21`: the GI50 is 70.6 µM (inactive).

`CCCCCC(C)SC1(C(=O)OC)CC(OC(C)=O)C(NC(C)=O)C([C@H](OC(C)=O)[C@@H](COC(C)=O)OC(C)=O)O1` (stereo not given in full): the GI50 is 55.6 µM (inactive).

Take `O=C1CC(NC(=O)C(F)(F)F)c2c(Br)sc(N3CCC(c4ccccc4)CC3)c21` (stereo not given): the GI50 is 27.7 µM (inactive).

Take `CN1N=C(c2ccccc2)c2cc(Cl)ccc2N=C1N/N=C/c1ccc(N(C)C)cc1`: the GI50 is > 100 µM (inactive).

On to `COC(=O)C(CC(C)C)NC(=O)C(NC(=O)c1ccc(-c2ccc(Cl)cc2Cl)o1)C(C)C` (stereo not given), for which the GI50 is 30 µM (inactive).

On to `COc1ccccc1C1(c2c(OC(C)C)c(=O)c2=O)SCCCS1`, for which the GI50 was 72.6 µM (inactive).

Take `CC[C@@H]1/C=C/C=C/C[C@H](C)[C@@H](O)[C@](C)(O)C(=O)[C@H](C)[C@@H](O)[C@H](C)C(=O)[C@H](C)[C@@H](O)[C@H](C)/C=C/C(=O)O[C@H]2[C@@H](C)[C@@H](CC1)O[C@@]1(CC[C@@H](C)[C@@H](CC(C)O)O1)[C@@H]2C` (stereo not given in full): the GI50 was 1.52 µM (inactive).

With `O=[N+]([O-])c1ccc(Oc2c(Cl)cc(S(=O)(=O)N/C(=N\O)Nc3ccc(Cl)cc3)cc2Cl)c(Cl)c1`, the GI50 was 14.8 µM (inactive).

As to `COc1cc(Nc2nc3ccccc3nc2C(C)C)cc(OC)c1OC`, the GI50 was > 100 µM (inactive).

As to `O=S1(=O)OCCCOS(=O)(=O)C1(Br)Br`, the GI50 is > 100 µM (inactive).

In the case of `CC(=O)O[C@H]1C(=O)[C@@]2(C)[C@H]([C@H](OC(=O)c3ccc(F)cc3)[C@]3(O)C[C@H](OC(=O)[C@H](O)[C@@H](NC(=O)c4ccccc4)c4ccccc4)C(C)=C1C3(C)C)[C@]1(OC(C)=O)CO[C@@H]1C[C@@H]2O`, the GI50 was 0.64 µM (active).
